# Values quoted from earlier work as cited in article PMC7395068, “The evolution of strategies to minimise the risk of human drug-induced liver injury (DILI) in drug discovery and development” (Archives of Toxicology, 2020).
# Like-named read-outs stand apart in the source and are kept apart here. Where a SMILES comes first, the peptide text is derived from it. Bridges are numbered along the chain shown (N, C = ends). [ ]: non-standard residue; d: D form. hArg = N=C(N)NCCCC[C@H](N)C(=O)O; Mpa = O=C(O)CCS
# Settings: cited from earlier work
# [1] = binary in vivo DILI call given beside the severity category, ref Chen 2016
# [2] = human DILI concern category (LTKB DILIrank), ref Chen 2016
# [3] = LTKB DILIrank category, ref Chen 2016
# [4] = binary DILI call, ref Chen 2016
# [5] = binary in vivo human DILI call, ref Chen 2016
# [6] = human DILI, LTKB DILIrank category, ref Chen 2016
molecule,measurement,setting,value
C[N@+]1(CC2CC2)CC[C@]23c4c5ccc(O)c4O[C@H]2C(=O)CC[C@@]3(O)[C@H]1C5 [methylnaltrexone bromide],"DILI +VE (5-8), DILI -VE (-4)",[1],-VE
same,DILI severity category,[2],vNo-DILI-Concern
pentosan polysulfate,"DILI +VE (5-8), DILI -VE (-4)",in vivo,-VE
same,DILI severity category,in vivo,Ambiguous DILI-concern
O=C(O)COC(=O)Cc1ccccc1Nc1c(Cl)cccc1Cl [aceclofenac],"DILI +VE (5-8), DILI -VE (-4)",in vivo,+VE
same,DILI severity category,in vivo,vLess-DILI-Concern
CN1CCN(C(c2ccccc2)c2ccc(Cl)cc2)CC1 (stereo not shown) [chlorcyclizine],DILI severity category,[3],vLess-DILI-Concern
CCOC(=O)[C@H](CCc1ccccc1)N[C@@H](C)C(=O)N1Cc2cc(OC)c(OC)cc2C[C@H]1C(=O)O [moexipril],"DILI +VE (5-8), DILI -VE (-4)",[1],-VE
same,DILI severity category,[2],Ambiguous DILI-concern
CO[C@@]1(NC(=O)Cc2cccs2)C(=O)N2C(C(=O)O)=C(COC(N)=O)CS[C@@H]21 [cefoxitin],DILI severity category,[3],Ambiguous DILI-concern
same,"DILI +VE (5-8), DILI -VE (-4)",[4],-VE
muromonab-cd3,"DILI +VE (5-8), DILI -VE (-4)",in vivo,-VE
same,DILI severity category,in vivo,Ambiguous DILI-concern
CC[C@H](C)[C@@H]1NC(=O)[C@H](Cc2ccc(O)cc2)NC(=O)[C@@H](N)CSSC[C@@H](C(=O)N2CCC[C@H]2C(=O)N[C@@H](CC(C)C)C(=O)NCC(N)=O)NC(=O)[C@H](CC(N)=O)NC(=O)[C@H](CCC(N)=O)NC1=O [oxytocin],"DILI +VE (5-8), DILI -VE (-4)",in vivo,-VE
same,DILI severity category,in vivo,vNo-DILI-Concern
sacrosidase,"DILI +VE (5-8), DILI -VE (-4)",in vivo,-VE
same,DILI severity category,in vivo,Ambiguous DILI-concern
CC(N)C(=O)OC(C)(C)Cc1ccc(Cl)cc1 (stereo not shown) [alaproclate],DILI severity category,[3],vMost-DILI-Concern
Nc1nc(Cl)nc2c1ncn2[C@@H]1O[C@H](CO)[C@@H](O)[C@@H]1F [clofarabine],DILI severity category,[3],Ambiguous DILI-concern
same,"DILI +VE (5-8), DILI -VE (-4)",[4],-VE
CCCCCCCC/C=C\CCCCCCCC(=O)O.NCCO [ethanolamine oleate],"DILI +VE (5-8), DILI -VE (-4)",[5],-VE
same,DILI severity category,[6],vNo-DILI-Concern
N=C(N)NCCCC[C@@H]1NC(=O)CCSSC[C@@H](C(N)=O)NC(=O)[C@@H]2CCCN2C(=O)[C@H](Cc2c[nH]c3ccccc23)NC(=O)[C@H](CC(=O)O)NC(=O)CNC1=O [eptifibatide] ([Mpa][hArg]GDWPC-NH2; disulfide 1-7),"DILI +VE (5-8), DILI -VE (-4)",in vivo,-VE
same,DILI severity category,in vivo,vNo-DILI-Concern
CN1c2c(nc(N)[nH]c2=O)NC[C@@H]1CNc1ccc(C(=O)N[C@@H](CCC(=O)O)C(=O)O)cc1 [levomefolate calcium],"DILI +VE (5-8), DILI -VE (-4)",in vivo,-VE
same,DILI severity category,in vivo,vNo-DILI-Concern
C[n+]1ccccc1/C=N/O [pralidoxime],"DILI +VE (5-8), DILI -VE (-4)",[1],-VE
same,DILI severity category,[2],Ambiguous DILI-concern
CCOC(=O)C1(c2ccccc2)CCN(CCC(C#N)(c2ccccc2)c2ccccc2)CC1 [diphenoxylate],"DILI +VE (5-8), DILI -VE (-4)",[5],-VE
same,DILI severity category,[6],vNo-DILI-Concern
COc1cc([C@@H]2c3cc4c(cc3[C@@H](O[C@@H]3O[C@@H]5CO[C@@H](c6cccs6)O[C@H]5[C@H](O)[C@H]3O)[C@H]3COC(=O)[C@H]23)OCO4)cc(OC)c1O [teniposide],"DILI +VE (5-8), DILI -VE (-4)",[1],+VE
same,DILI severity category,[2],vLess-DILI-Concern
CCCCCN(C)CCC(O)(P(=O)(O)O)P(=O)(O)O [ibandronate],"DILI +VE (5-8), DILI -VE (-4)",[5],-VE
same,DILI severity category,[6],vNo-DILI-Concern
CC1=C(C(=O)O)N2C(=O)[C@@H](NC(=O)[C@H](N)C3=CCC=CC3)[C@H]2SC1 [cephradine],DILI severity category,[3],Ambiguous DILI-concern
same,"DILI +VE (5-8), DILI -VE (-4)",[4],-VE
CC(C)CN(C[C@@H](O)[C@H](Cc1ccccc1)NC(=O)O[C@H]1CCOC1)S(=O)(=O)c1ccc(N)cc1 [amprenavir],DILI severity category,[3],Ambiguous DILI-concern
same,"DILI +VE (5-8), DILI -VE (-4)",[4],-VE
COc1c(C)c2c(c(O)c1C/C=C(\C)CCC(=O)OCCN1CCOCC1)C(=O)OC2 [mycophenolate mofetil],"DILI +VE (5-8), DILI -VE (-4)",[1],+VE
same,DILI severity category,[2],vLess-DILI-Concern
